According to patent EP2746402A1, “Method of prognosis of Alzheimers disease and substrates for use therein” (Academisch Medisch Centrum, priority 2013, dated 2014):
Positions of bridges follow the written chain, without caps; N, C: chain ends. Non-standard residues stand in square brackets, D forms with d. Residues, ends and D or L forms follow the SMILES beside them. *: point of attachment. Ileψ(thiazoline)Cys = CC[C@H](C)[C@H](N)C1=N[C@H](C(=O)*)CS1; Sta = CC(C)C[C@H](N)[C@@H](O)CC(=O)O; dOrn = NCCC[C@@H](N)C(=O)O; Isovaleryl = CC(C)CC(=O)*; Cbz = O=C(OCc1ccccc1)*; CH2Cl = ClC*

Legend:
Assay type in all cases: biochemical
[1] = tested on: HEK293 cytosolic fractions; experiment: Quenched Aβ peptide (qAβ) degradation assay in HEK293 cytosolic fractions, with and without protease inhibitors; conditions: protease inhibitor added to HEK293 cytosolic fractions prior to qAβ, 30 minutes at 4 °C; inhibitor concentrations 20-200 µM; fluorescence at 37°C
Source text: We developed a sensitive Aβ degradation assay by generating a quenched Aβ40 peptide containing a small fluorescein group and a quenching dabcyl group (Reits et al., 2004) flanking the KLVFF sequence present in the middle of the Aβ peptides that is a critical region for aggregation (Fig. 1A) (Tjernberg et al., 1996). A quenched Aβ42 peptide was difficult to synthesize as the peptide was too aggregation-prone during synthesis, preventing efficient labeling with the small fluorophore. […] The qAβ peptides were added to cytoplasmic fractions of mildly lysed HEK293 cells, thereby preventing contamination with extracellular membrane-bound or lysosomal proteases, resulting in an increase in fluorescent signal (Fig. 1B). To identify which proteases play a role in this Aβ clearance machinery, different protease inhibitors were added to the cytosolic fractions prior to adding the qAβ. […]
HEK cells were lysed in 25 µM digitonin (Sigma) in KMH buffer (110 mM KAc, 2 mM MgAc and 20 mM Hepes-KOH, pH 7.2). Human and mouse brain hippocampal tissue was lysed in ± 400 µl (adjusted to the amount of tissue) of homogenization buffer (50 mM Tris/HCl pH 7.5, 250 mM sucrose, 5 mM MgCl2 and freshly added 2 mM ATP, 1 mM DTT and 0.025 % digitonin (Sigma)). Tissue was homogenized on ice in homogenization buffer using a homogenizer. Cell lysates were incubated for 30 minutes on ice and centrifuged for 15 minutes at 14.000 rpm at 4 °C.
HFIP-treated aliquots of Aβ40 were resuspended in DMSO followed by sonication for 10 minutes, immediately before use. 75 ng (340 nM) of quenched Aβ40 was added to 5 µg protein from the cell lysates in KMH buffer (110 mM KAc, 2 mM MgAc and 20 mM Hepes-KOH, pH 7.2) to a total volume of 50 µl. Protease inhibitors (100 µM 1,10-phenanthroline, 200 µM bacitracin, 100 µM E64, 20 µM MG-132, 100 µM puromycin, 100 µM PMSF, 200 µM pepstatin A (all Sigma), 100 µM AAF-CMK, 100 µM amastatin or 50 µM bestatin (Enzo lifesciences AG), 50 µM PAQ-22 (Wako Chemicals), 100 µM Cpp-AAF-pNa (InstruChem), 50 µM PAQ-22 (SopaChem) and 100 µM butabindide (Tocris Bioscience)) were added to the cell lysates and incubated for 30 minutes at 4 °C. Degradation of the peptide was analyzed at 37°C using the FLUOstar OPTIMA (BMG Labtec.).

SH-SY5Y cell lysates = experiment: Degradation of the quenched 12-mer peptide in SH-SY5Y cell lysates
Source text: To proof that shorter variants of the substrates of the invention may also be used as a suitable substrate to measure IDE activity, we analyzed the degradation of a substrate having the amino acid sequence HQKLVFFACDBC, which contains the KLVFF region flanked by a quenched and fluorophore. In addition, we examined the effect of bacitracine, the inhibitor for IDE, on the degradation of this 12-mer peptide (see Figure 5), as well as its ability to aggregate and form oligomers.
The 12-mer substrate having the amino acid sequence HQKLVFFACDCB (SEQ ID NO:10) containing a fluorophore and quencher was synthesized as described before (Reits et al., 2004), introducing a fluorescein at the cysteine (position 11) and a quenching dabcyl group at the lysine (position 3). The substrate was sonificated immediately before use and added to 5 µg cell lysate. KMH buffer (110 mM KAc, 2 mM MgAc and 20 mM Hepes-KOH, pH 7.2) was added to a total volume of 50 µl. Degradation of the substrate was analyzed at 37°C using the FLUOstar OPTIMA (BMG Labtec.).

[2] = tested on: human hippocampal lysates; experiment: Quenched Aβ peptide (qAβ) degradation assay in human hippocampal lysates at different Braak stages; conditions: bacitracin added to hippocampal lysates prior to qAβ; all Braak stages
Protocol: Since the hippocampus is highly susceptible to Aβ accumulation, we examined whether the ability to degrade Aβ is affected in sporadic (sAD) using human hippocampal tissue of post-mortem brains with varying Braak stages. Included were Braak 0 (control, no AD) and Braak I-VI. When the ability to degrade qAβ was determined for each Braak stage (Fig. 2A, solid bars), a strong decrease in qAβ degradation rate was already observed in Braak stage I (t-test, two-tailed, p=0.03), which further decreased during the progression to Braak stage II (t-test, two-tailed, p=0.01). […] Also oligomerized Aβ was less well degraded with increasing Braak stage (Fig. 2B). AD progression can also be classified by plaque distribution in well defined brain areas giving a particular amyloid score, ranging from O (no plaques) to C. Similar to increasing Braak stages, the rate of qAβ degradation decreased with increasing amyloid score, being significant for hippocampal fractions of brains classified with amyloid score C (t-test, two-tailed, p=0.017) (Fig. 2C). […]
HFIP-treated aliquots of Aβ40 were resuspended in DMSO followed by sonication for 10 minutes, immediately before use. […] Degradation of the peptide was analyzed at 37°C using the FLUOstar OPTIMA (BMG Labtec.).

Molecule | effect on qAβ degradation [1] | further results
C[C@H](N)C(=O)N[C@@H](C)C(=O)N[C@@H](Cc1ccccc1)C(=O)CCl [AAF-CMK] (H-Ala-Ala-Phe-CH2Cl) | did not show any effect | 
CC(C)C[C@H](NC(=O)[C@H]1O[C@@H]1C(=O)O)C(=O)NCCCCN=C(N)N [E64] | did not show any effect | 
CC(C)C[C@@H](C=O)NC(=O)[C@H](CC(C)C)NC(=O)[C@H](CC(C)C)NC(=O)OCc1ccccc1 [MG132] (Cbz-Leu-Leu-Leu-aldehyde) | did not show any effect | 
O=S(=O)(F)Cc1ccccc1 [PMSF] | did not show any effect | 
CC(C)C[C@@H](N)[C@H](O)C(=O)N[C@H](C(=O)N[C@H](C(=O)N[C@@H](CC(=O)O)C(=O)O)C(C)C)C(C)C [amasatin] | did not show any effect | 
CC[C@H](C)[C@H](N)C1=N[C@H](C(=O)N[C@@H](CC(C)C)C(=O)N[C@H](CCC(=O)O)C(=O)N[C@H](C(=O)N[C@H]2CCCCNC(=O)[C@H](CC(N)=O)NC(=O)[C@@H](CC(=O)O)NC(=O)[C@H](Cc3cnc[nH]3)NC(=O)[C@@H](Cc3ccccc3)NC(=O)[C@H]([C@@H](C)CC)NC(=O)[C@@H](CCCN)NC2=O)[C@@H](C)CC)CS1 [bacitracin] ({Ileψ(thiazoline)Cys}-L[dE]IK[dOrn]I[dF]H[dD]N; lactam 4-C) | reduced | effect on degradation of the 12-mer peptide (SH-SY5Y cell lysates; bacitracine added to SH-SY5Y cell lysates, monomeric 12-mer): inhibited; ability to degrade qAβ [2]: strongly reduced
CC(C)C[C@H](NC(=O)[C@@H](O)[C@H](N)Cc1ccccc1)C(=O)O [bestatin] | did not show any effect | 
CCCCNC(=O)[C@@H]1Cc2ccccc2N1C(=O)[C@@H](N)CC [butabindide] | did not show any effect | 
CC(C)CC(=O)N[C@H](C(=O)N[C@H](C(=O)N[C@@H](CC(C)C)[C@@H](O)CC(=O)N[C@@H](C)C(=O)N[C@@H](CC(C)C)[C@@H](O)CC(=O)O)C(C)C)C(C)C [pepstatin] (Isovaleryl-VV[Sta]A[Sta]-OH) | did not show any effect | 
c1cnc2c(c1)ccc1cccnc12 [phenantroline, 1,10-phenanthroline] | significantly decreased | 
HQKLVFFACDCB [12-mer peptide] |  | plateau level of fluorescence after aggregation (SH-SY5Y cell lysates; 12-mer peptide incubated at 37°C (3 HR in PBS) before addition to SH-SY5Y cell lysates): lower plateau level; degradation of the 12-mer peptide (SH-SY5Y cell lysates; monomeric form added to SH-SY5Y cell lysates): degradation could be observed
